Test results as given in US20060205755A1, “Novel farnesyl protein transferase inhibitors as antitumor agents” (Schering Corporation, priority 2004, published 2006).

Key:
Human tumor cells = assay: Soft Agar Assay (anchorage-independent growth, colony count); format: cell-based; conditions: colony outgrowth 10-16 days at 37° C.
Method: Anchorage-independent growth is a characteristic of tumorigenic cell lines. Human tumor cells can be suspended in growth medium containing 0.3% agarose and an indicated concentration of a farnesyl transferase inhibitor. The solution can be overlayed onto growth medium solidified with 0.6% agarose containing the same concentration of farnesyl transferase inhibitor as the top layer. After the top layer is solidified, plates can be incubated for 10-16 days at 37° C. under 5% CO2 to allow colony outgrowth. After incubation, the colonies can be stained by overlaying the agar with a solution of MTT (3-[4,5-dimethyl-thiazol-2-yl]-2,5-diphenyltetrazolium bromide, Thiazolyl blue) (1 mg/mL in PBS). Colonies can be counted and the IC50's can be determined.

[1] = biological target: purified human farnesyl protein transferase (Homo sapiens, UniProt P49354+P49356); assay: FPT activity: transfer of [3H] farnesyl from [3H] farnesyl pyrophosphate to biotinylated H-ras peptide (SPA); format: biochemical; conditions: 0.03 nM enzyme, 37° C., 60 minutes
Method: FPT activity was determined by measuring the transfer of [^3H] farnesyl from [^3H] farnesyl pyrophosphate to a biotinylated peptide derived from the C-terminus of H-ras (biotin-CVLS). The reaction mixture contains: 50 mM Tris pH7.7, 5 mM MgCl2, 5 μM Zn^++, 5 mM DTT, 0.1% Triton-X, 0.05 μM peptide, 0.03 nM purified human farnesyl protein transferase, 0.180 μM [^3H] farnesyl pyrophosphate, plus the indicated concentration of tricyclic compound or vehicle control in a total volume of 100 μl. The reaction was incubated in a Vortemp shaking incubator at 37° C., 45 RPM for 60 minutes and stopped with 150 μl of 0.25 M EDTA containing 0.5% BSA and 1.3 mg/ml Streptavidin SPA beads. Radioactivity was measured in a Wallach 1450 Microbeta liquid scintillation counter. Percent inhibition was calculated relative to the vehicle control.

IC50 (Human tumor cells) [nM] | IC50 [1] [nM] | Structure (SMILES)
≥ 9 |  | Cn1cncc1C(NC(=O)OC1(C)CC1)C1=Cc2cccnc2C(C2CCN(C(=O)OC3(C)CC3)CC2)c2ccc(Cl)cc21 (single isomer, unassigned) [Example 4]
≥ 9 |  | Cn1cncc1C(NC(=O)OC1(C)CC1)C1=Cc2cccnc2C(=C2CCN(C(=O)OC(C)(C)C)CC2)c2ccc(Cl)cc21 (centres unmarked) [Example 1]
 | 0.9 | Cn1cncc1C(NC(=O)OC1(C)CC1)C1=Cc2cccnc2C(=C2CCN(C(=O)OC3(C)CC3)CC2)c2ccc(Cl)cc21 (centres unmarked) [Example 2]
≥ 9 |  | Cn1cncc1C(NC(=O)OC1(C)CC1)C1=Cc2cccnc2C(O)(C2CCN(C(=O)OC(C)(C)C)CC2)c2ccc(Cl)cc21 (centres unmarked) [Example 5]
≥ 9 |  | Cn1cncc1C(NC(=O)OC1(C)CC1)C1=Cc2cccnc2C(O)(C2CCN(C(=O)OC3(C)CC3)CC2)c2ccc(Cl)cc21 (centres unmarked) [Example 6]
